pIC50: −log10 of the molar value.
Legend:
Assay type in all cases: cell-based
hROMK (human Kir1.1) = hROMK (human Kir1.1) (Homo sapiens (Human), UniProt P48048); experiment: Thallium Flux Assay (FluxOR, CHO T-Rex hROMK stable cell line); settings: CHO T-Rex hROMK cells, 10-point concentration response curve; read-out: Human ROMK TH Flux IC50
hROMK = hROMK (Homo sapiens (Human), UniProt P48048); experiment: ROMK Manual Patch Clamp Assay; settings: whole-cell manual patch clamp, hROMK current; read-out: ROMK EP IC50
hROMK, sequence (P48048 whole entry): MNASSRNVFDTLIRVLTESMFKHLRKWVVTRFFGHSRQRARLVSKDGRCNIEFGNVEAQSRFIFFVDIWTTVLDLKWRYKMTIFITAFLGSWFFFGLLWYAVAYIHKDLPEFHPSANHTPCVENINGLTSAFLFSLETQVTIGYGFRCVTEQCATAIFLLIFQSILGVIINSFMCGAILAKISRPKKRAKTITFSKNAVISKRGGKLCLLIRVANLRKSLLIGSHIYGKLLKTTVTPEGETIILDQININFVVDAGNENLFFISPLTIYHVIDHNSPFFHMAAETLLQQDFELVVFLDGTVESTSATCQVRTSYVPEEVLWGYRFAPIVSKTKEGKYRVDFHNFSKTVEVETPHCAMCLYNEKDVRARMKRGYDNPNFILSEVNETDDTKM
Protocol: Cell culture conditions: Cells were maintained in conditions similar to those for Thallium flux assay. hROMK channel expression was induced by adding 0.6 μg/ml of Doxycycline 16-24 hrs prior to the experiments. On the day of experiment, the cells were dissociated using Versene, resuspended in growth media and plated onto coverslips 15 minutes prior to use.
The cells were voltage clamped at −75 mV in whole-cell configuration using an Axopatch 200b or Multiclamp 700b (Molecular Devices) amplifier controlled by pClamp Software (Molecular Devices). The current was recorded by applying a voltage step to −120 mV every 10 seconds. […] At the end of the experiment, the cells were perfused with bath solution containing 2 mM Ba^2+ to isolate the contribution of hROMK current.
Data analysis: Raw current values (5 traces each for control, different compound concentration and Ba^2+ treatment groups) were exported from Clampfit into Microsoft Excel where the current remaining after application of Ba^2+ was subtracted from raw current to obtain hROMK specific current.

hERG channels = hERG channels (Homo sapiens (Human), UniProt Q12809); experiment: hERG Manual Patch Clamp Assay (HEK 293 cells stably expressing hERG channels); settings: human, HEK 293 cells stably expressing hERG channels, pH 7.4
hERG channels, sequence (Q12809 whole entry): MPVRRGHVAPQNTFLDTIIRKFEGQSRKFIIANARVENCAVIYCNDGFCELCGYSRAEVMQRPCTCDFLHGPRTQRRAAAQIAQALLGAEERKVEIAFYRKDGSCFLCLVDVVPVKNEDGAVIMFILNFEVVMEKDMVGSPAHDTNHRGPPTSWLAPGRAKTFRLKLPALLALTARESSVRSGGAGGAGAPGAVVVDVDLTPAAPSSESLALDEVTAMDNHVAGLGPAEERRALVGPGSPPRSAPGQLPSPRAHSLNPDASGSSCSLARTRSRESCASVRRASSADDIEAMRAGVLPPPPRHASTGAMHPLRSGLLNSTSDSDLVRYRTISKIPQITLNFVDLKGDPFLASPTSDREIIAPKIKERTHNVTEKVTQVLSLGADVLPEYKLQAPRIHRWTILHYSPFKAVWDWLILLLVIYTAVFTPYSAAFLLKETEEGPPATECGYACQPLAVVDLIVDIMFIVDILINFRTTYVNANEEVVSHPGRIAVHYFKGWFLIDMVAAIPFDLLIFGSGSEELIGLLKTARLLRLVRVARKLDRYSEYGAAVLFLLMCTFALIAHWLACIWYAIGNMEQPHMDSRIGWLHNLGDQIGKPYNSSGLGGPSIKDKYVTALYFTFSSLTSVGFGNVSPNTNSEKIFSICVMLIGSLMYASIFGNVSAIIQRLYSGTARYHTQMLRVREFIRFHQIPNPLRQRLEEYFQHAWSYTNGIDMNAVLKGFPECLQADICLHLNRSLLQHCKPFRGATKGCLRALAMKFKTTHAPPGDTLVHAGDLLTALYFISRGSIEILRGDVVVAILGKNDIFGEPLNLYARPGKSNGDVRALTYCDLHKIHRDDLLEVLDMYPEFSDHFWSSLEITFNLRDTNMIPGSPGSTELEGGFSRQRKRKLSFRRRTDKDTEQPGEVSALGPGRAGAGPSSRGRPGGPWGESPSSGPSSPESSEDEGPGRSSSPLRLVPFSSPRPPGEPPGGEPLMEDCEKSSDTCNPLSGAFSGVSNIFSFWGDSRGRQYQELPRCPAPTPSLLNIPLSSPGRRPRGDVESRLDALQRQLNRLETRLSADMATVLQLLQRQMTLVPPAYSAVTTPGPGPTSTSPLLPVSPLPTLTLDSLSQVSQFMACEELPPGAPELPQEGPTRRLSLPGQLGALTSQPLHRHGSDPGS

hROMK (human Kir1.1), sequence (P48048 whole entry): as the sequence (P48048 whole entry) above

Molecule `Cc1c([C@@H](O)CNCc2cnc(-n3cc(C#N)c(C(F)F)n3)nc2)ccc2c1COC2=O` [Example 115, (R)-3-(difluoromethyl)-1-(5-(((2-hydroxy-2-(4-methyl-1-oxo-1,3-dihydroisobenzofuran-5-yl)ethyl)amino)methyl)pyrimidin-2-yl)-1H-pyrazole-4-carbonitrile] has a pIC50 (hROMK (human Kir1.1)) of 7.70, a pIC50 (hROMK) of 7.70 and an inhibition at 1 µM (hERG channels) of 12%.

Source: US10723723B2, “Substituted bicycle heterocyclic derivatives useful as ROMK channel inhibitors” (BRISTOL-MYERS SQUIBB COMPANY, priority 2016, dated 2020)
